From patent US20120308538A1, “PREVENTING SPOILAGE IN ALCOHOL FERMENTATIONS” (priority 2011, published 2012)
Bridges are numbered along the chain shown (N, C = ends). Where no end group is shown, it is not given here.

Assays:
Lactobacillus brevis = type: cell-based
Method: (§1) Cultures of Lactobacillus brevis L1055 or a control bacterium Staphylococcus aureus-were cultured at 37° C. overnight in MRS media (10 g litre^−1 universal peptone, 5 g litre^−1 meat extract, 5 g litre^−1 yeast extract, 20 g litre^−1 D(+)-glucose, 2 g litre^−1 K2HPO4, 2 g litre^−1 diammonium hydrogen citrate, 5 g litre NaOAc, 0.1 g litre^−1 MgSO4, 0.05 g litre^−1 MnSO4, final pH 6.5+/−0.2 at 37° C.). To prevent yeast growth in samples taken from fermentations seeded with L. brevis, the MRS medium was supplemented with cycloheximide at 10 μg/ml. The cultures were diluted to give a final densitiy of approximately 10^3 cells/mL. Synthetic HBD (0.5-10 μg/mL) was added to the bacterial cultures in a final volume of 100 μl volumes. CMBS cultures containing the pGREG, HBD-3-505V or HBD-3-506V were grown in overnight synthetic medium plus galactose (2%). The supernatants were concentrated (1000-fold) using molecular filtration membranes [Molecular Weight Cut Off (MWCO) 2000] ensuring all unspent sugar was removed from the medium. The concentrated supernatants were added to the bacterial cultures as described above. Following a two-hour incubation at 37° C., the number of bacterial colonies in each sample was determined following incubation on MRS plates containing cycloheximide at 37° C. for 48 hrs.
(§2) To test the activity of β-Defensin-3 against beer-spoiling bacteria, a defensin bioassay was carried out as described in the Methods section. Since our goal was to express HBD-3 in lager yeast, the cytotoxic effects of HBD-3 against the lager yeast CBMS was also examined. […] The minimum inhibitory concentration (MIC) values for HBD-3 against Lb. brevis and Lb. malefermentas were 5 μg/ml 0.5 μg/ml respectively. The LD-100 and MIC were lower than that required against other gram positive strains such as S. mutans, S. pyogenes, and […]. […] (data not shown).

[1] = tested on: Lactobacillus malifermentus; type: cell-based
Method: as §1, §2

lager yeast CBMS = test: Cytotoxic effects of HBD-3 against the lager yeast; type: cell-based, Saccharomyces pastorianus; details: data not shown
Method: as §2

[2] = tested on: Lactobacillus brevis 1105; test: HBD-3 activity in beer fermentations: brew samples seeded with bacteria incubated with HBD-3; type: cell-based; details: HBD-3 5 μg/mL; day 14 brew samples; seeded day 6 at 10^2 and 10^4 cfu/ml; two independent fermentations
Lb. brevis = test: In situ antimicrobial activity of HBD-3 secreted from yeast strains under fermentation conditions; type: cell-based, Lactobacillus brevis; details: summary statement, spoilage bacteria
Method: Yeast strains were grown up from single colonies in 3 mL YEP-Maltose medium (YEPM) and expanded to 2 liters. 40% (w/v) wort was reconstituted in water from spray-dried malt (Belgium) supplemented with 1 mM Zinc and autoclaved. The wort was diluted to give 1.02-1.060 g/mL density (10-15° Plato), and aerated. The yeast harvested from the 2 liter YEPM medium was resuspended in the diluted wort to give a yeast concentration of 1−1.5×10^7 cells/mL in either 250 ml sterile glass cylinders or in 2 L cylindro-conical EBC vessels. Wort was aerated once with compressed air, bubbling from the bottom of the vessel and anaerobic conditions were maintained by overlying with mineral oil. Flasks were incubated at a 45° angle, and incubated at 11-13° C. The density of the solution was measured every other day for 14 days. Samples were also used for the measurement of HBD-3 in the medium. At the end of the brewing period, yeast were recovered and stored for re-pitching if required. To test the efficacy of the HBD-3-yeast to prevent beer spoilage, individual beer spoilage bacterial strains (10^3/mL) were introduced along with pitching yeast. The surviving bacteria were quantified every other day along with viable yeast cells in the brew. The physical and chemical characteristics of the brew as well as taste and palatability were also measured with the help of healthy volunteers. […]

beer spoilage bacteria = test: Beer spoilage challenge in the bottled product (pilot scale 50 L fermentations); details: bottled product from CM-PGK-51 fermentation; no freeze-thawing cycle; larger than usual amounts of bacteria
Method: Pilot scale fermentations (50 L) were carried out using CM-PGK-51 as a starter culture.

[3] = synthetic HBD-3, two-hour incubation at 37° C.

“GIINTLQKYYCRVRGGRCAVLSCLPKEEQIGKCSTRGRKCCRRKK (disulfide 11-40, 18-33, 23-41 (inferred)) [HBD-3, human β-defensin-3]” was tested, and the “minimum inhibitory concentration (MIC)” value (Lactobacillus brevis; synthetic HBD-3) was 5 µg/mL, the “LD-100 (effectively killed at concentration)” value (Lactobacillus brevis; [3]) was 10 µg/mL and the “minimum inhibitory concentration (MIC)” value ([1]; synthetic HBD-3) was 0.5 µg/mL. For the same sequence, the “LD-100 (effectively killed at concentration)” value [1, 3] was 1 µg/mL, the “HBD-3 concentrations at which lager yeasts were resistant” value (lager yeast CBMS) was “up to 100 μg/ml” and the “reduction of bacterial load in the wort” value [2] was 100 fold. The “reduction of bacterial load after quick freezing of the brew” value (Lb. brevis) was 90-95% and the “protective effects in beer spoilage challenge” value (beer spoilage bacteria) was “did not reveal any protective effects”.
